Data reported in patent US20260098017A1, “NOVEL AROMATIC RING DERIVATIVE CONTAINING AMIDE SUBSTITUTION AND USE THEREOF” (TIANJIN PHARMACEUTICAL BIOTECHNOLOGY CO., LTD., priority 2022, published 2026).

Target: Ba/F3 cell line expressing TYK2 (Homo sapiens, UniProt P29597, cells depend on it, form not given)
Experiment: In vitro cellular inhibition assay (Ba/F3 cell proliferation, CellTiter-Glo)
Format: cell-based
Settings: read-out: IC50 (the source's name)
Method: The inhibitory effect of the compounds of formula (I) according to the present invention on the TYK2 signaling pathway in cells was assessed using the following method:
Instrumentation: SpectraMax Paradigm reader.
Method: in this experiment, a Ba/F3 cell line expressing TYK2 was employed to assess the effect of the compounds on cell proliferation inhibition by measuring their effects on cell activity in vitro.
Procedure: a CellTiter-Glo buffer was thawed and placed aside till room temperature. A CellTiter-Glo substrate was placed aside till room temperature and dissolved with the buffer to prepare a CellTiter-Glo working solution. To a 96-well flat bottom transparent drug plate, 98 μL of cell culture medium and 2 μL of gradient diluted compound solution were added. The drug plate was placed aside for 10 min, and then 50 μL of the CellTiter-Glo working solution was added. The drug plate was subsequently shaken on an orbital shaker for 2 min and placed aside at room temperature for an additional 10 min. Finally, the luminescence signal was measured on the SpectraMax Paradigm reader.
Data Analysis: the cell proliferation inhibition rate data were processed using the following formula:
Inhibition Rate (Inh %)=100−(RLUDrug−RLUMin)/(RLUMax−RLUMin)×100%.
The inhibition rates of compounds with different concentrations were calculated in EXCEL, and then GraphPad Prism software was employed to plot inhibition rate curve and calculate relevant parameters, including maximum and minimum cell inhibition rates, IC50 values.

SMILES | GI50 [nM]
[2H]C([2H])([2H])NC(=O)c1nnc(NC(=O)C2CC2)cc1Nc1cccc(C(=O)Nc2cc(C)cc(C)c2)c1OC [Example 9] | 5 to 10
[2H]C([2H])([2H])NC(=O)c1nnc(NC(=O)C2CC2)cc1Nc1cccc(C(=O)Nc2cnc(F)nc2)c1OC [Example 47] | 5 to 10
[2H]C([2H])([2H])NC(=O)c1cnc(NC(=O)C2CC2)cc1Nc1cccc(C(=O)Nc2ccc(F)cn2)c1OC [Example 94] | 5 to 10
[2H]C([2H])([2H])NC(=O)c1cnc(NC(=O)C2CC2)cc1Nc1cccc(C(=O)Nc2ncn(C)n2)c1OC [Example 88] | 5 to 10
[2H]C([2H])([2H])NC(=O)c1nnc(NC(=O)C2CC2)cc1Nc1cccc(C(=O)Nc2ccc(C(F)(F)F)c(C)c2)c1OC [Example 29] | 5 to 10
[2H]C([2H])([2H])NC(=O)c1cnc(NC(=O)C2CC2)cc1Nc1cccc(C(=O)Nc2ncc(F)cn2)c1OC [Example 93] | 5 to 10
[2H]C([2H])([2H])NC(=O)c1nnc(NC(=O)C2CC2)cc1Nc1cccc(C(=O)Nc2ccncc2)c1OC [Example 50] | 5 to 10
[2H]C([2H])([2H])NC(=O)c1nnc(NC(=O)C2CC2)cc1Nc1cccc(C(=O)Nc2cncnc2)c1OC [Example 52] | 5 to 10
[2H]C([2H])([2H])NC(=O)c1nnc(NC(=O)C2CC2)cc1Nc1cccc(C(=O)Nc2cccc(C3CC3)c2)c1OC [Example 11] | 5 to 10
[2H]C([2H])([2H])NC(=O)c1nnc(NC(=O)C2CC2)cc1Nc1cccc(C(=O)Nc2ccc(C)nc2)c1OC [Example 44] | 5 to 10
[2H]C([2H])([2H])NC(=O)c1nnc(NC(=O)C2CC2)cc1Nc1cccc(C(=O)Nc2cccnc2)c1OC [Example 49] | 5 to 10
[2H]C([2H])([2H])NC(=O)c1nnc(NC(=O)C2CC2)cc1Nc1cccc(C(=O)Nc2ncn(C)n2)c1OC [Example 36] | 5 to 10
[2H]C([2H])([2H])NC(=O)c1cnc(NC(=O)C2CC2)cc1Nc1cccc(C(=O)Nc2ncc(C)cn2)c1OC [Example 97] | 5 to 10
[2H]C([2H])([2H])NC(=O)c1cnc(NC(=O)C2CC2)cc1Nc1cccc(C(=O)NC(C)(C)C)c1OC [Example 106] | 5 to 10
[2H]C([2H])([2H])NC(=O)c1nnc(NC(=O)C2CC2)cc1Nc1cccc(C(=O)Nc2cccc(CC)c2)c1OC [Example 13] | 5 to 10
[2H]C([2H])([2H])NC(=O)c1nnc(NC(=O)C2CC2)cc1Nc1cccc(C(=O)Nc2cccc(C(C)C)c2)c1OC [Example 16] | 5 to 10
[2H]C([2H])([2H])NC(=O)c1nnc(NC(=O)C2CC2)cc1Nc1cccc(C(=O)Nc2ccc(C(C)(C)C)cc2)c1OC [Example 21] | 5 to 10
[2H]C([2H])([2H])NC(=O)c1nnc(NC(=O)C2CC2)cc1Nc1cccc(C(=O)Nc2ccc(CC)cc2)c1OC [Example 18] | 5 to 10
[2H]C([2H])([2H])NC(=O)c1cnc(NC(=O)C2CC2)cc1Nc1cccc(C(=O)Nc2ccccc2F)c1OC [Example 59] | 5 to 10
[2H]C([2H])([2H])NC(=O)c1nnc(NC(=O)C2CC2)cc1Nc1cccc(C(=O)Nc2ccc(OC)cc2)c1OC [Example 24] | 5 to 10
[2H]C([2H])([2H])NC(=O)c1nnc(NC(=O)C2CC2)cc1Nc1cccc(C(=O)Nc2cccc(C#N)c2)c1OC [Example 15] | 5 to 10
[2H]C([2H])([2H])NC(=O)c1nnc(NC(=O)C2CC2)cc1Nc1cccc(C(=O)Nc2ncc(F)cn2)c1OC [Example 41] | 5 to 10
[2H]C([2H])([2H])NC(=O)c1nnc(NC(=O)C2CC2)cc1Nc1cccc(C(=O)Nc2cc(C)ccn2)c1OC [Example 37] | 5 to 10
[2H]C([2H])([2H])NC(=O)c1nnc(NC(=O)C2CC2)cc1Nc1cccc(C(=O)Nc2ccc(CC)c(C)c2)c1OC [Example 25] | 5 to 10
[2H]C([2H])([2H])NC(=O)c1nnc(NC(=O)C2CC2)cc1Nc1cccc(C(=O)Nc2ccc(C(F)(F)F)cc2)c1OC [Example 22] | 5 to 10
[2H]C([2H])([2H])NC(=O)c1nnc(NC(=O)C2CC2)cc1Nc1cccc(C(=O)Nc2ccc(C3CC3)c(C)c2)c1OC [Example 26] | 5 to 10
[2H]C([2H])([2H])NC(=O)c1cnc(NC(=O)C2CC2)cc1Nc1cccc(C(=O)Nc2ncccn2)c1OC [Example 103] | 5 to 10
[2H]C([2H])([2H])NC(=O)c1nnc(NC(=O)C2CC2)cc1Nc1cccc(C(=O)Nc2cccc(C)n2)c1OC [Example 40] | 5 to 10

Results, then the molecule that gave them:

GI50 [nM] | SMILES
5 to 10 | [2H]C([2H])([2H])NC(=O)c1cnc(NC(=O)C2CC2)cc1Nc1cccc(C(=O)Nc2ccc(C#N)c(C)c2)c1OC [Example 82]
5 to 10 | [2H]C([2H])([2H])NC(=O)c1cnc(NC(=O)C2CC2)cc1Nc1cccc(C(=O)Nc2cccc(C(F)(F)F)c2)c1OC [Example 64]
5 to 10 | [2H]C([2H])([2H])NC(=O)c1cnc(NC(=O)C2CC2)cc1Nc1cccc(C(=O)Nc2ccc(C(F)(F)F)cc2)c1OC [Example 74]
5 to 10 | [2H]C([2H])([2H])NC(=O)c1cnc(NC(=O)C2CC2)cc1Nc1cccc(C(=O)Nc2ccccc2C)c1OC [Example 56]
5 to 10 | [2H]C([2H])([2H])NC(=O)c1cnc(NC(=O)C2CC2)cc1Nc1cccc(C(=O)Nc2ccc(C(C)C)c(C)c2)c1OC [Example 79]
5 to 10 | [2H]C([2H])([2H])NC(=O)c1cnc(NC(=O)C2CC2)cc1Nc1cccc(C(=O)Nc2ccc(C(C)(C)C)cc2)c1OC [Example 73]
5 to 10 | [2H]C([2H])([2H])NC(=O)c1cnc(NC(=O)C2CC2)cc1Nc1cccc(C(=O)Nc2ccn(C)n2)c1OC [Example 85]
5 to 10 | [2H]C([2H])([2H])NC(=O)c1cnc(NC(=O)C2CC2)cc1Nc1cccc(C(=O)Nc2ccc(CC)c(C)c2)c1OC [Example 77]
5 to 10 | [2H]C([2H])([2H])NC(=O)c1cnc(NC(=O)C2CC2)cc1Nc1cccc(C(=O)Nc2ccc(F)c(C)c2)c1OC [Example 84]
5 to 10 | [2H]C([2H])([2H])NC(=O)c1cnc(NC(=O)C2CC2)cc1Nc1cccc(C(=O)Nc2ccc(C(C)(C)C)c(C)c2)c1OC [Example 80]
5 to 10 | [2H]C([2H])([2H])NC(=O)c1cnc(NC(=O)C2CC2)cc1Nc1cccc(C(=O)Nc2cccc(C3CC3)c2)c1OC [Example 63]
5 to 10 | [2H]C([2H])([2H])NC(=O)c1cnc(NC(=O)C2CC2)cc1Nc1cccc(C(=O)Nc2ccc(CC)cc2)c1OC [Example 70]
5 to 10 | [2H]C([2H])([2H])NC(=O)c1cnc(NC(=O)C2CC2)cc1Nc1cccc(C(=O)Nc2cccnc2)c1OC [Example 101]
5 to 10 | [2H]C([2H])([2H])NC(=O)c1cnc(NC(=O)C2CC2)cc1Nc1cccc(C(=O)Nc2cccc(F)c2)c1OC [Example 58]
5 to 10 | [2H]C([2H])([2H])NC(=O)c1cnc(NC(=O)C2CC2)cc1Nc1cccc(C(=O)Nc2cc(C)cc(C)c2)c1OC [Example 61]
5 to 10 | [2H]C([2H])([2H])NC(=O)c1cnc(NC(=O)C2CC2)cc1Nc1cccc(C(=O)Nc2ccc(C3CC3)c(C)c2)c1OC [Example 78]
5 to 10 | [2H]C([2H])([2H])NC(=O)c1cnc(NC(=O)C2CC2)cc1Nc1cccc(C(=O)Nc2ccccc2)c1OC [Example 53]
